Measurements from ChEMBL document CHEMBL1141442, “Structure elucidation of a dihydropyranone from Tapinanthus dodoneifolius” (J Nat Prod, 2007).

Species: Rattus norvegicus
Assay: Vasorelaxant effect on norepinephrine induced-contraction in Wistar rat aortic rings
Type: functional, organism-based
Details: Aorta

O=C1C=CC[C@H](C[C@@H](O)CCc2ccc(O)cc2)O1
IC50: 81.4 µM
